{"source": "patent US12383534B2", "about": "“Methods for treating cancer” (REGENTS OF THE UNIVERSITY OF MINNESOTA, priority 2021, dated 2025)", "key": {"[1]": {"system": "Ewing sarcoma cell lines (AF573, TC71, A673)", "assay": "Cell viability (ATP) assay in Ewing sarcoma cell lines", "assay_type": "cell-based", "conditions": "0.003 and 0.03 μM, 48 hours", "procedure": "(§1) Cell lines were plated in a 96 well dish (1×10^5 cells/well), and the following day were treated with iP300w or its stereoisomers. ATP assays were performed using CellTiter-Glo® Luminescent Cell Viability Assay (Promega) according to the manufacturer's instructions. Luminescence was analyzed on POLARstar Optima Microplate Reader (BMG Labtech, Offenburg, Germany).\nTo determine whether iP300w was particularly active against CDS cells, vis-à-vis other related cancer cell lines, viability of 3 different Ewing sarcoma (ES) cell lines and several different immortalized cell lines treated with iP300w were compared. […] Furthermore, gene expression analyses confirmed the specificity of iP300w to CDS."}, "p300 and CBP": {"system": "p300 and CBP", "conditions": "in vitro and in vivo; cited from earlier work"}, "[2]": {"system": "global H3K18 and H3K27 acetylation", "assay": "Western blot for H3 acetylation markers in Kitra-SRS cells", "assay_type": "cell-based, human", "conditions": "18 hours", "procedure": "For western blot analyses, cells were lysed with RIPA buffer supplemented with protease inhibitor cocktail (Complete, Roche), and proteins were separated on 10% SDS-PAGE gels, then transferred to PVDF membranes. Antibodies were diluted in 5% skim milk in TBST and incubated overnight at 4° C. or 1 hour at RT. An appropriate secondary HRP conjugated antibody was incubated for 1 hour at RT. Membranes were then washed with TBST, and signal was visualized using Pierce ECL western blotting substrate (Thermo Scientific). For immunofluorescence, cells cultured in 96 well plates were fixed in 4% PFA for 10 min., washed twice with PBS, permeabilized with 0.3% Triton X for 30 min, and blocked with 3% BSA for 1 hour at R/T. Primary antibodies were diluted in 3% BSA and incubated o/n at 4° C. An appropriate conjugated secondary antibody was applied for 60 min at RT. Nuclei were visualized using DAPI (1:5000, Sigma). […]"}, "[3]": {"system": "NCC-CDS-X1 cells (CIC-DUX4 sarcoma cell line)", "assay": "Cell viability (ATP) assay in NCC-CDS-X1 cells", "assay_type": "cell-based, human", "procedure": "Basal media were purchased from HyClone, fetal bovine serum (FBS) was from PeakSerum (Ps-FB3, lot 293Q16), and Glutamax (Glu) and Penicillin/Streptomycin (P/S) were from GIBCO. NCC-CDS-X1 (CIC-DUX4 sarcoma cell line, a generous gift from Tadashi Kondo) cell line was cultured in RPMI with 10% FBS, Glu and P/S, Kitra-SRS (CIC-DUX4 sarcoma cell line, a generous gift from Hidetatsu Otani), 3T3, 293T and C2C12 cell lines were cultured in DMEM/10% FBS/Glu/P/S. The immortalized human myoblast LHCN-M2 cell line was cultured in proliferation medium: F10 supplemented with 20% FBS, 2-mercaptoethanol 1× (GIBCO), 10^−9 M dexamethasone (Sigma), 10 ng/mL bFGF (Peprotech), and Glu/P/S. All cells were cultured at 37° C. in a 5% CO2 atmosphere.\nas §1\nThe activity of the various iP300w stereoisomers against NCC-CDS-X1 cells was evaluated. Cultures were treated with serial dilutions, ranging from 0.003 μM to 3.0 μM, for up to 96 hours. In cells treated with iP300w, a significant decrease in cell viability was evident at the lowest concentration (0.003 μM) at 48 and 96 hours (FIG. 3A). The effect was dose- and time-dependent. […] (FIG. 2B and FIG. 9)."}, "[4]": {"assay": "Cell viability (ATP) assay in colorectal cancer cells", "assay_type": "cell-based", "conditions": "cancer and colorectal cell lines expected to have a general p300/CBP dependence", "procedure": "as §1\n(§2) Pancreatic and colorectal cancer cell lines were treated with iP300w to further distinguish its specificity to CDS from general cytotoxicity. p300/CBP have been correlated with the invasive and migratory properties of pancreatic and colorectal cancers (Iyer, N. G. et al., Proceedings of the National Academy of Sciences of the United States of America 101, 7386-7391 (2004); and Paladino, D. et al, Oncotarget 7, 7253-7267 (2016)). […] This further supports the specific efficacy of iP300w against cancers bearing p300-dependent oncogenic fusion transcription factors (such as CIC-DUX4), vis-à-vis cancers that may show some degree of growth inhibition by iP300w due simply to p300-dependent proliferative pathways."}, "[5]": {"system": "HTC116, MKN28, KATO3 colorectal cancer cells", "assay": "Cell viability (ATP) assay in colorectal cancer cells", "assay_type": "cell-based", "conditions": "serial dilutions, 48 hours", "procedure": "as §1, §2"}}}
{"smiles": "CNC(=O)Cn1cc(-c2ccc3c(c2)[C@H](F)C[C@]32NC(=O)N(CC(=O)N(Cc3ccc(F)cc3)[C@@H](C)C(F)(F)F)C2=O)cn1", "note": "(single isomer, unassigned) [iP300w]", "values": [{"measurement": "effect on cell viability", "setting": "[1]", "result": "only effective for CIC-DUX4 driven sarcomas and not for the other cell lines"}, {"measurement": "inhibition of acetylation by p300 and CBP", "setting": "p300 and CBP", "result": "inhibit acetylation by p300 and CBP both in vitro and in vivo"}, {"measurement": "effect on global H3K18 and H3K27 acetylation", "setting": "[2]", "result": "reduces global H3K18 and H3K27 acetylation"}, {"measurement": "effective concentration on CDS cells", "setting": "[3]; CDS cells, studies herein", "result": 0.003, "unit": "µM"}, {"measurement": "lowest concentration with significant decrease in cell viability", "setting": "[3]; NCC-CDS-X1, 48 and 96 hours, serial dilutions 0.003 to 3.0 μM", "result": 0.003, "unit": "µM"}, {"measurement": "lowest effective concentration in cell viability assay", "setting": "[3]; NCC-CDS-X1, day 2", "result": 0.003, "unit": "µM"}, {"measurement": "activity relative to A-485 in the cell-based assays", "setting": "[3]; cell-based assays", "result": "about two orders of magnitude more active than A-485"}, {"measurement": "concentration at which growth inhibition is first observed", "setting": "[4]", "result": "≥ 0.3", "unit": "µM"}, {"measurement": "effect on cell viability", "setting": "[5]", "result": "no significant effect on cell viability"}]}
